Reference: a melting point compilation (Tetko et al.; mined from patent text by program, amines drawn as free bases though some values may be those of a salt)

Structure (SMILES)	melting point [°C]
CCOP(=O)(Cc1cccc2cccc(CP(=O)(OCC)OCC)c12)OCC	55 to 56
CC(C)(C)OC(=O)N1C[C@@H]2OCc3cnnn3[C@H]2C1	155 to 157
COc1cc(-c2snnc2C)cc2oc(=O)c(C)c(C)c12	204 to 206
C=CCc1c(OC)cc(C(=O)O)cc1OC	56 to 57
Nc1ccc(-c2cc3ccccn3c2C(=O)CCC(=O)O)cc1	86 to 88
CC(C)c1nc(COC(=O)N[C@H](C(=O)N[C@@H](Cc2ccccc2)C[C@H](O)[C@H](Cc2ccccc2)NC(=O)OCc2cncs2)C(C)C)cs1	142 to 145
O=C(O)C1c2ccccc2COc2ccc(I)cc21 (centres undefined)	191 to 192
NC(=O)Cn1cc(C(=O)c2ccn3c2CSC3c2cccnc2)c2ccc(-c3ccc(F)cc3)cc21 (centres undefined)	215 to 225
COC(=O)c1cc(=O)c2oc3ccccc3c(=O)c2[nH]1	244 to 245
CNC1=CC(=O)N(C)C1	132 to 134
COc1cc(C(=O)c2ccccn2)cc([N+](=O)[O-])c1OC	113
CC(=O)Nc1ccc(O[C@H](c2ccc([N+](=O)[O-])cc2)[C@@H](O)CO)cc1	110 to 111
CCOC(=O)OCn1c(SCc2nccc3ccsc23)nc2ccccc21	90 to 92
COc1ccc(-c2[nH]c(-c3ccc(N)c(C)c3)nc2C(=O)Nc2nccs2)cc1	> 250
Cc1ccc(NC(=O)Nc2cc(C(C)(C)C)sc2CNC(=O)CN)cc1	93 to 96
O=c1c2ccccc2ncn1CCN1CC=C(c2c[nH]c3ccccc23)CC1	132
O=C1OC(c2ccccc2)(c2ccccc2)C2CN(C3CCN(Cc4ccccc4)CC3)CCN12 (centres undefined)	153 to 155
COc1cc(CCNC(C)=O)c(C(=O)Cc2cc(OC)c(OC)cc2[N+](=O)[O-])cc1OC	142 to 144
CSC(=S)C1(c2ccccn2)SCCCS1	91
CCN1CCCC(NC(=O)c2cc(C)on2)C1 (centres undefined)	84 to 86
O=C(O)C1=Cc2cc(Cl)cc(Cl)c2SC1C(F)(F)F (centres undefined)	218 to 220
N#CC(C#N)(Cc1ccc(Cl)cc1)C1CCCCC1	108
COc1cc(C[C@@H](NC(C)=O)C(=O)O)ccc1OC(C)=O	174 to 175

Structure (SMILES)	melting point [°C]
COc1ccc(C2=NNC(=O)CC2c2ccccc2)cc1 (centres undefined)	176 to 177
CN(C)c1ncnc2c(-c3ccncc3)cnn12	184 to 185
COc1cc(COc2ccc(N)nn2)c(Br)c(OC)c1OC	160 to 161
COc1cc(CBr)c(Br)cc1OCc1ccccc1	103 to 105
CC(C)(C)OC(=O)NCC1Cc2ccc(CC(=O)O)cc2C1 (centres undefined)	123 to 124
COc1ccc2cc(NC(C)=O)cc(C)c2n1	193 to 196
CCCCCCCCCCOc1ccc(Br)cc1OCCCCCCCCCC	39.5 to 40
CCOC(=O)/C=C/c1cn(Cc2ccc(OCc3ccccc3)cc2)nc1-c1ccccc1	94 to 95
C[Si](C)(C)CCOC1OC(COC(=O)c2ccccc2)C(O)C(O)C1N=[N+]=[N-] (centres undefined)	55 to 57
C=CCOC(=O)CC[C@H](NC(=O)Nc1ccc(COC(=O)Oc2ccc([N+](=O)[O-])cc2)cc1)C(=O)OCC=C	106 to 107
CCOC(=O)C1C(c2ccc([N+](=O)[O-])cc2)CC(=O)N1C (centres undefined)	142 to 143
ON=C1CCC(C2CCCCC2)=C1c1ccc(F)cc1	173 to 176
CC(C)CC1(C)C(=O)NCCN1Cc1ccccc1 (centres undefined)	158 to 161
CCOC(=O)C=Cc1c(-c2ccccc2)nn2ccccc12	54 to 55
CN1CCC(OC(c2ccccc2)c2nc3ccccc3s2)CC1 (centres undefined)	115
CC(C)(C)c1cc(CCC(=O)NCCNc2c(Cl)nc(Cl)c(Cl)c2C#N)cc(C(C)(C)C)c1O	150 to 160
Cc1oc(-c2ccccc2)nc1CCOc1ccc(OC(C)(C)C(=O)O)cc1	129 to 130
CCCCN(CCCC)CCCOc1ccc(C(=O)c2c(-c3ccccc3)cc3cc(C(=O)OCC)ccn23)cc1	148 to 151
CNC(=O)CC(C#Cc1ccccc1)c1ccc(OC)c(OC2CCCC2)c1 (racemic)	127 to 131
COC(=O)CCCCCCn1[nH]c(=O)n(C)c1=O	80 to 81
NC(=O)N(O)CC1CCCCCC1	110 to 112
CC(C)(C)OC(=O)N1CCN2C(=O)N(c3ccc(C#N)c4ccccc34)C(=O)C2C1 (centres undefined)	222 to 224
COC(=N[N+](=O)[O-])NCc1ccc(Cl)nc1	112 to 113

Structure (SMILES)	melting point [°C]
c1ccc(CNc2nc3c(c4[nH]c(Cc5ccccc5)nc24)CCCC3)cc1	199 to 200
Nc1cc(C(F)(F)F)c(-c2cc(Br)c(N)cc2C(F)(F)F)cc1Br	154 to 157
Cc1cc(N2CCNCC2)ccc1NS(C)(=O)=O	79 to 81
Nc1nc(O)c2c(n1)NCC(CCc1ccc(C(=O)N[C@@H](CCC(=O)O)C(=O)O)c(F)c1)C2 (some centres undefined)	199 to 209
Nc1ccccc1C(=O)/C=C/c1nccn1C(c1ccccc1)(c1ccccc1)c1ccccc1	142 to 144
N#Cc1ccc(Cc2ccc(-c3ccc(C#N)cn3)o2)cc1	204 to 206
CC(Oc1ccc(Oc2cnc3cc(Cl)ccc3n2)cc1)C(=O)Nc1ccc(OC(F)(F)CF)cc1 (centres undefined)	137 to 140
COC(=O)c1ccc(OC)cc1S(N)(=O)=O	135 to 139
c1ccc(C2C3=NCCN3CCc3ccccc32)cc1 (centres undefined)	122 to 123
CC(C)(C)c1cc(N(C(=O)CCC(=O)O)c2ccc(OC(=O)c3ccccc3)cc2)cc(C(C)(C)C)c1O	131 to 132
O=Cc1ccccc1P(=O)(c1ccccc1)c1ccccc1	131 to 134
CCCCc1oc2ccccc2c1C(=O)NCc1ccc2c(-c3ccccc3)c(OCC#N)ccc2c1	135 to 138
CC1(C)CN=C2C(=O)c3cc(C#N)ccc3N2C1	178 to 184
Cc1cc2c(-c3ccccc3)c3n(c(=O)c2cc1C)CCCC3O (centres undefined)	210 to 212
CCN(C)c1ccc2c(c1)CNC2=O	127 to 129
CCCC12COC(C=O)(OC1)OC2	117 to 118
O=C(O)c1ccc(Cc2n[nH]c3c2c(=O)n(-c2ccccc2)c2ncccc32)cc1	> 320
Cc1cnc2[nH]cc(/C=C3\N=C(NCC4CC4)NC3=O)c2c1	319 to 320
CCCCC(=O)Nc1ccc(Br)c(-n2nc(CC)n(Cc3ccc(-c4ccccc4S(=O)(=O)NC(=O)OC(C)(C)C)cc3F)c2=O)c1	108 to 110
O=C(O)CNC1=Nc2ccc(Cl)cc2C(c2ccccc2)=NC1	215 to 220
COc1ccc(S(=O)C(C)(CC=C(C)C)C(=O)NO)cc1 (centres undefined)	108
Cc1ncsc1CCOS(N)(=O)=O	80 to 83
C=C(C#N)CCC(=O)O	26.5 to 27

The remaining lines, values ahead:

melting point [°C]	Structure (SMILES)
73 to 75	CS(=O)(=O)NC(CCCCCc1ccc(Cl)cc1)C(=O)O (centres undefined)
94.5 to 96	O=C(NC(C(=O)OCc1ccccc1)C(=O)C1CC1)c1ccc(F)cc1 (centres undefined)
110 to 112	NC(=O)CCCOc1cccc(CCNS(=O)(=O)c2ccc(Cl)cc2)c1
150 to 154	O=C(c1ccc(-c2ccccn2)s1)N1CCCCc2sccc21
95 to 105	CCNC(=O)c1cccc(F)c1Nc1nc(Nc2cc3c(cc2OC)CCN(CC(=O)N(C)C)CC3)ncc1Cl
96.7	O=Cc1cc(C(=O)c2ccccc2)ccc1[N+](=O)[O-]
243 to 245	CCCCC1Cc2c(n(-c3ccc(F)cc3)c3ncccc3c2=O)O1 (centres undefined)
218 to 220	CC(c1oc2ccccc2c(=O)c1-c1cccc(F)c1)n1nc(-c2cccc(N(C)C)c2)c2c(N)ncnc21 (centres undefined)
138 to 140	COc1ccc(N(CCCC(=O)O)C(=O)CCN(C(=O)c2ccc(Cl)cc2)c2c(C)cccc2C)cc1
94 to 95	CC(C)(C)C(=O)C(=Cn1ccnc1)Oc1ccc(Cl)cc1
188	CC1(C)CCC(C)(C)c2c(OCc3ccc(F)cc3)cc(C(O)C#Cc3ccc(C(=O)O)cc3)cc21 (centres undefined)
86 to 88	COc1ccsc1C(=O)C1C(=O)N(C(N)=O)c2ccc(Cl)cc21 (centres undefined)
285 to 287	O=C(CCC12CCC(=O)N1C(=O)CC2)Nc1ccncc1
86 to 88	COC1(c2cccc(Sc3ccc(C(C)=NO)cc3)c2)CCN(CC(F)(F)F)C1 (centres undefined)
248 to 250	O=C(O)c1ccc2c(c1)S(=O)(=O)c1ccccc1CC2
148 to 151	O=C(c1ccccc1F)N1C(=O)c2ccccc2S1(=O)=O
206	Cc1ccc2c(c1)c(Cl)c(C#N)c(=O)n2Cc1ccc(F)cc1
88 to 92	CN(C)CC(=O)N1CCC(c2cc(F)ccc2F)(S(=O)(=O)c2ccc(Cl)cc2)CC1
193 to 195	COc1ccc2c3c1c(C)c(-c1ccc(O)cc1)n3CC(CCN1CCN(c3cc(C)ccn3)CC1)O2 (centres undefined)
281 to 283	Cc1nc(-c2ccc(Cl)cc2)c2nc(-c3ccccc3)cc-2[nH]1
250 to 252	NC(=O)NCc1cc2cc(CN3CCOCC3)cc3c(=O)c(C(=O)NCc4ccc(Cl)cc4)cn1c23
137 to 138	CCN(CC)CCNC(=O)N1CCCC(S(=O)(=O)c2ccc(F)cc2)C1 (centres undefined)
243 to 245	CS(=O)(=O)c1ccc(-c2cc(-c3csc(N)n3)sc2-c2ccc(F)cc2)cc1
158 to 159	Cc1nnc(-c2ccc3ncn(C4CCN(C(=O)c5ccccc5)CC4)c3c2)o1
131 to 132	CC(C)(C)Oc1cccc(C[C@@H](C(=O)O)[C@@H](O)c2ccc(F)cc2)c1 (racemic)
110 to 112	CCOC(=O)Cc1csc(NC(=O)c2ccc(F)cc2)n1
116	CNCCN(C)C(=O)[C@@H]1CCCN1S(=O)(=O)c1ccc(Cl)c(COc2cccc3c(-n4ccnc4)cc(C)nc23)c1Cl
45 to 48	COCCOc1nc(C)nc(N2CCC(c3ccc(F)cc3)CC2)c1[N+](=O)[O-]
275 to 277	CC(=O)Nc1c(-c2ccccc2)c(=O)[nH]c2cc(Cl)ccc12
277 to 278	O=C(O)c1ccccc1C(=O)N1CCN(c2cc3c(cc2F)c(=O)c(C(=O)O)c2sccn23)CC1
